Reference: patent US6825209B2, “Compounds having unique CB1 receptor binding selectivity and methods for their production and use” (Research Triangle Institute, priority 2002, dated 2004)
Where two headings read alike, the source gives them in different places.

What was measured:
CB1 receptor = biological target: T1, CB1 receptor (Rattus norvegicus, UniProt P20272); assay: Radioligand displacement in whole rat brain (CB1) membrane preparations; assay type: binding; conditions: Table 4, parallel synthesis analogs; for Ki: n = 1, concentration assumes 100% yield; for Max. Disp. %, 3H-CP55940 / Max. Disp. %, 3H-SR141716A / Max. Disp. %, 3H-WIN55212-2: n = 1
T1 construct: Whole rat brains or dissected regions from live CD rats; tissue Charles River or Pel-Freez Biologicals; host or cells: whole rat brain (CD rats), P2 membrane
T1 sequence (P20272 whole entry): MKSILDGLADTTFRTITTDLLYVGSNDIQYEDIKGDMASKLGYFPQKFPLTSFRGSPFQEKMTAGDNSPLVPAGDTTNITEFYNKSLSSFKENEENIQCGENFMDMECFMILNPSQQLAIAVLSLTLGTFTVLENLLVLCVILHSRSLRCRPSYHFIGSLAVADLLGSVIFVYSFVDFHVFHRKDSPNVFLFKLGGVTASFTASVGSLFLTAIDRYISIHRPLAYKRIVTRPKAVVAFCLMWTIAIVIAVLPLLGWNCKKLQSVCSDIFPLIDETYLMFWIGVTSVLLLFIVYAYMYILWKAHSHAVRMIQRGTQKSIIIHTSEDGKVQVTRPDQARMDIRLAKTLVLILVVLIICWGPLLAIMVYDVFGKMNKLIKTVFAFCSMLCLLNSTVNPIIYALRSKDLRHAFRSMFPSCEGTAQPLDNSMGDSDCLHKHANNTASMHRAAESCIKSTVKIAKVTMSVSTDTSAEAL
Excerpt: CB1 receptor affinity in rat brain.
Methods—membrane preparation from brain. The methods for tissue preparation are essentially those described by Devane et al. (1988) as modified by Compton et al. (1993) and later by Thomas et al. (1998). Whole rat brains or dissected regions from live CD rats from Charles River or Pel-Freez Biologicals (Rogers, Ark.), or human brain sections obtained from the National Disease Research Institute, were allowed to thaw to room temperature on ice. Both whole brain and dissected brain regions were used because different brain regions may express different cannabinoid receptor subtypes (Skaper et al., 1996; Thomas et al., 1998). The tissue was homogenized with a Kontes Potter-Elvehjem glass-Teflon grinding system (Fisher Scientific, Springfield, N.J.) in buffer 1 (320 mM sucrose, 2 mM EDTA, 5 mM MgCl2. The homogenate was centrifuged at 1600 g for 10 min. The supernatant was saved and combined with the two subsequent supernatants obtained from washing and 1600 g centrifugation of the P1 pellet. The combined supernatant fractions were then centrifuged at 39,000 g for 15 min. The P2 pellet was resuspended in 50 mL of buffer 2 (50 mM Tris.HCl, 2 mM EDTA, 5 mM MgCl2, pH 7.0), incubated at 37° C. for 10 min, then centrifuged at 23,000 g for 10 min. The P2 membrane was resuspended in 50 mL of buffer 2, incubated at 30° C. for 40 min, then centrifuged at 11,000 g for 15 min. The final wash-treated P2 pellet was resuspended in assay buffer 3 (50 mM Tris.HCl, 1 mM EDTA, 3 MM MgCl2, pH 7.4). Protein concentrations were determined by the method of Bradford (1976) using Coomassie brilliant blue dye (Bio-Rad, Richmond, Calif.) and BSA standards (bovine serum albumin, fatty acid free, Sigma Chemical Co., St. Louis, Mo.) prepared in assay buffer 3. The membrane preparation was divided into aliquots and stored at −80° C. For use in the binding assay, an aliquot of frozen membranes was thawed on ice and diluted to a concentration of ca. 0.2 mg/mL in assay buffer.
Methods—binding assay in brain membrane preparation. The methods for ligand binding are essentially those described by Devane et al. (1988) with the exception that we used a filtration assay. […] All cannabinoid analogs were prepared by suspension in buffer A from a 1-5 mg/mL ethanolic stock. Following incubation at 30° C. for 1 h, binding was terminated by vacuum filtration through pretreated filters in a 96-well sampling manifold (Millipore, Bedford, Mass.). Reaction vessels were washed at least 3 times with 1 mL of ice cold buffer B (50 mM Tris.HCl, 1 mg/mL BSA). The filter plates were air-dried and sealed on the bottom. Liquid scintillant was added to the wells and the top sealed. After incubating the plates in cocktail for at least 2 h, the radioactivity present was determined by liquid scintillation spectrometry. Assays were done in duplicate, and results represent the combined data of three to six independent experiments. All assays were performed in polypropylene test tubes. The GF/C glassfiber filter plates (Packard, Meriden, Conn.) were pretreated in buffer B for at least 1 h.
(§1) Data analysis. Saturation and displacement data were analyzed by unweighted nonlinear regression of receptor binding data. For displacement studies, curve-fitting and IC50 calculation were done with GraphPad Prism (GraphPad Software, Inc., San Diego, Calif.), which fits the data to one and two-site models and compares the two fits statistically. A similar approach was used for the analysis of isotherm data for calculation of Kd's. A two-site fit was accepted only if it was statistically significant (p<0.05) and the following results were not observed:
(§2) IC50 values were then converted to Ki values by reported methods (Cheng and Prusoff, 1973). The statistical evaluation of curve-fitting data allowed for a non-arbitrary conclusion based on the displacement data.

human CB1 receptor = biological target: T2, human CB1 receptor (Homo sapiens, UniProt P21554); assay: Radioligand displacement in human CB1 receptor-transfected cells (HEK-293); assay type: binding
T2 construct: expressed in transfected cells; host or cells: HEK-293
T2 sequence (P21554 whole entry): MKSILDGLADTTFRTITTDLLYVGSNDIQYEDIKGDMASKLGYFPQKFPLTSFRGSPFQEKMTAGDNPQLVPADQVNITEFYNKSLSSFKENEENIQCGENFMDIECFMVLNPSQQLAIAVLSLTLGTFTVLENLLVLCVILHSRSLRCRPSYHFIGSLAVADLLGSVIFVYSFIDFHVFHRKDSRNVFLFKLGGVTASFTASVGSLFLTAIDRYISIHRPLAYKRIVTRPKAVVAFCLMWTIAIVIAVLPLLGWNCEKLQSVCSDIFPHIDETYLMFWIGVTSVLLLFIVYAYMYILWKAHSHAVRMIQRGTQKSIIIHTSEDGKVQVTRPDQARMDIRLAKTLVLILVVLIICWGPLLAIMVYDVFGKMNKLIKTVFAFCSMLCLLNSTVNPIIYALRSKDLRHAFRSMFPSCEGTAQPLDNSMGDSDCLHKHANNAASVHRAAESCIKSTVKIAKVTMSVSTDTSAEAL
Description: Human CB1 receptor affinity. The alkyl amide analogs of the present invention were examined using transfected cell lines expressing the human CB1 receptor (Table 3).
Methods—binding assay in transfected cell lines. The methods used for performing binding assays in transfected cells expressing human CB1 or CB2 receptors are those used above. The CB1 receptor involved a HEK-293 expression system whereas the CB2 receptor was expressed in CHO-K1 cells. […] The incubations and separations were then performed as described above for rat brain membrane preparations.
as §1, §2

[1] = displacement of 3H-CP55940, whole rat brain, 3H-CP55940
[2] = displacement of 3H-SR141716A, whole rat brain, 3H-SR141716A
[3] = displacement of 3H-WIN55212-2, whole rat brain, 3H-WIN55212-2
[4] = displacement of 3H-CP55940, human CB1 transfected cells, 3H-CP55940, Table 5, parallel synthesis analogs, concentration assumes 100% yield
[5] = displacement of 3H-SR141716A, human CB1 transfected cells, 3H-SR141716A, Table 5, parallel synthesis analogs, concentration assumes 100% yield
[6] = displacement of 3H-WIN55212-2, human CB1 transfected cells, 3H-WIN55212-2, Table 5, parallel synthesis analogs, concentration assumes 100% yield
[7] = human CB1 transfected cells, 3H-CP55940, Table 5, parallel synthesis analogs
[8] = human CB1 transfected cells, 3H-SR141716A, Table 5, parallel synthesis analogs
[9] = human CB1 transfected cells, 3H-WIN55212-2, Table 5, parallel synthesis analogs

Ki (CB1 receptor; [1])	Ki (CB1 receptor; [2])	Ki (CB1 receptor; [3])	Max. Disp. %, 3H-CP55940 (CB1 receptor; whole rat brain, 3H-CP55940)	Max. Disp. %, 3H-SR141716A (CB1 receptor; whole rat brain, 3H-SR141716A)	Max. Disp. %, 3H-WIN55212-2 (CB1 receptor; whole rat brain, 3H-WIN55212-2)	Ki (human CB1 receptor; [4])	Ki (human CB1 receptor; [5])	Ki (human CB1 receptor; [6])	Max. Disp. %, 3H-CP55940 (human CB1 receptor; [7])	Max. Disp. %, 3H-SR141716A (human CB1 receptor; [8])	Max. Disp. %, 3H-WIN55212-2 (human CB1 receptor; [9])	Structure (SMILES)	Max. Disp. %, 3H-CP55940 (human CB1 receptor)	Max. Disp. %, 3H-SR141716A (human CB1 receptor)	Max. Disp. %, 3H-WIN55212-2 (human CB1 receptor)	Ki (human CB1 receptor; displacement of 3H-CP55940)	Ki (human CB1 receptor; displacement of 3H-SR141716A)	Ki (human CB1 receptor; displacement of 3H-WIN55212-2)
113 nM	41.2 nM	69.5 nM	97.2%	97.2%	94.4%	52.1 nM	28.2 nM	56.9 nM	79.6%	99.2%	100%	Cc1c(C(=O)N2CCC(O)(c3ccccc3)CC2)nn(-c2ccc(Cl)cc2Cl)c1-c1ccc(Cl)cc1 [AM-28]						
91 nM	11.8 nM	30.4 nM	96.4%	95.4%	85.8%	220 nM	101 nM	128 nM	62.6%	87.3%	68.1%	COc1ccc(NC(=O)c2nn(-c3ccc(Cl)cc3Cl)c(-c3ccc(Cl)cc3)c2C)cc1 [AN-2]						
492 nM	172 nM	495 nM	79.3%	97.6%	80.5%	201 nM	4.2 nM	173 nM	75.9%	91.3%	94.9%	CCCCCCCCCCCCCNC(=O)c1nn(-c2ccc(Cl)cc2Cl)c(-c2ccc(Cl)cc2)c1C [BT-6]						
168 nM	25.5 nM	278 nM	86.4%	83.8%	90.3%	45.6 nM	5.2 nM	11.7 nM	82.4%	96.9%	54.9%	CCCCCCCCCCCNC(=O)c1nn(-c2ccc(Cl)cc2Cl)c(-c2ccc(Cl)cc2)c1C [BT-7]						
71.4 nM	29.8 nM	326 nM	84.7%	100%	94.9%	106 nM	13.6 nM	162 nM	96.1%	99.5%	100%	Cc1c(C(=O)NCCc2ccc(O)cc2)nn(-c2ccc(Cl)cc2Cl)c1-c1ccc(Cl)cc1 [AM-52]						
109 nM	53.7 nM	238 nM	82.6%	95.6%	56.5%	176 nM	43.5 nM	13.8 nM	79.5%	89.8%	31.4%	CCCCCCCCCCCCNC(=O)c1nn(-c2ccc(Cl)cc2Cl)c(-c2ccc(Cl)cc2)c1C [BT-2]						

The remaining lines, values behind:

Structure (SMILES)	Ki (CB1 receptor; [1])	Ki (CB1 receptor; [2])	Ki (CB1 receptor; [3])	Max. Disp. %, 3H-CP55940 (CB1 receptor; whole rat brain, 3H-CP55940)	Max. Disp. %, 3H-SR141716A (CB1 receptor; whole rat brain, 3H-SR141716A)	Max. Disp. %, 3H-WIN55212-2 (CB1 receptor; whole rat brain, 3H-WIN55212-2)	Ki (human CB1 receptor; [4])	Ki (human CB1 receptor; [5])	Ki (human CB1 receptor; [6])	Max. Disp. %, 3H-CP55940 (human CB1 receptor; [7])	Max. Disp. %, 3H-SR141716A (human CB1 receptor; [8])	Max. Disp. %, 3H-WIN55212-2 (human CB1 receptor; [9])	Max. Disp. %, 3H-CP55940 (human CB1 receptor)	Max. Disp. %, 3H-SR141716A (human CB1 receptor)	Max. Disp. %, 3H-WIN55212-2 (human CB1 receptor)	Ki (human CB1 receptor; displacement of 3H-CP55940)	Ki (human CB1 receptor; displacement of 3H-SR141716A)	Ki (human CB1 receptor; displacement of 3H-WIN55212-2)
CCC(C)CC(C)NC(=O)c1nn(-c2ccc(Cl)cc2Cl)c(-c2ccc(Cl)cc2)c1C (centres unmarked) [AKS-10262-6]	9.6 nM	2.3 nM	13.7 nM	91.4%	96.3%	89.9%	9.4 nM	2.2 nM	23.9 nM	86.5%	100%	78.7%						
CCCCCCCCCCNC(=O)c1nn(-c2ccc(Cl)cc2Cl)c(-c2ccc(Cl)cc2)c1C [BT-1]	92.8 nM	45 nM	1390 nM	83.6%	92.5%	67.4%							94.5%	95.4%	12.4%	184 nM	24.6 nM	63.8 nM
Cc1c(C(=O)NC(C)Cc2ccc(Cl)cc2)nn(-c2ccc(Cl)cc2Cl)c1-c1ccc(Cl)cc1 (centres unmarked) [AKS-10262-10]	18.4 nM	2.7 nM	10.1 nM		95.9%	86.1%	22.9 nM	2.38 nM	70.2 nM	94.8%	100%	65.5%						
CCCCCCCCCC(C)NC(=O)c1nn(-c2ccc(Cl)cc2Cl)c(-c2ccc(Cl)cc2)c1C (centres unmarked) [AKS-10262-3]	27.1 nM	9.7 nM	22.3 nM	83.7%	97.3%	82.4%	41.1 nM	7 nM	22.2 nM	77.7%	90.0%	76.1%						
CC(C)=CCC/C(C)=C/CNC(=O)c1nn(-c2ccc(Cl)cc2Cl)c(-c2ccc(Cl)cc2)c1C [AKS-10262-2]	48.1 nM	20.1 nM	40.5 nM	84.2%	95.7%	89.0%	26.8 nM	6.8 nM	211 nM	84.2%	95.7%	78.3%						
CCCCCC(C)NC(=O)c1nn(-c2ccc(Cl)cc2Cl)c(-c2ccc(Cl)cc2)c1C (centres unmarked) [AKS-10262-1]	10.7 nM	2.6 nM	1.84 nM	98.2%	96.5%	89.0%							80.7%	95.6%	100%	11.9 nM	2.02 nM	54.6 nM
